Experimental findings from patent US10670605B2, “Cysteine reactive probes and uses thereof” (The Scripps Research Institute, priority 2015, dated 2020) are described below.

Assay [1] has as its target cysteines in MDA-MB-231 and Ramos cells (Homo sapiens, UniProt O14980). Kind of assay: Competitive isoTOP-ABPP in situ (fragment-treated cells). Type of assay: cell-based. The conditions noted are these: for isoTOP-ABPP ratio O14980_C528: 200 μM, insitu.
In assay [2] the target is T1, cysteines in MDA-MB-231 and Ramos cells (Homo sapiens, UniProt P35754).
T1 sequence (P35754 1-106): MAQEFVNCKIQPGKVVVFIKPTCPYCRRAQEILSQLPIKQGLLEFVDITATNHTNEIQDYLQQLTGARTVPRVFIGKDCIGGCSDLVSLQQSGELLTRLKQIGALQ
Described as above. Format: cell-based. The note with it: for isoTOP-ABPP ratio P35754_C23: 200 μM, insitu, 231.

The target of assay [3] is cysteines in MDA-MB-231 and Ramos cells (Homo sapiens, UniProt Q00765). The description is as above. Format: cell-based. The note with it: for isoTOP-ABPP ratio Q00765_C18: 200 μM, insitu.
cysteines in MDA-MB-231 and Ramos cells (Homo sapiens, UniProt Q00765), sequence (Q00765 whole entry): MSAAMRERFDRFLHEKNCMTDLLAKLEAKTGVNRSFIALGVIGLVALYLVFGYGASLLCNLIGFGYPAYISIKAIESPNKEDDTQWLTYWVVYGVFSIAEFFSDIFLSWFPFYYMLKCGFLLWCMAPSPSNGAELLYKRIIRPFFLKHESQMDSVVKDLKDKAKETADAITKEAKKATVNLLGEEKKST
The target of assay [4] is cysteines in MDA-MB-231 and Ramos cells (Homo sapiens, UniProt Q9BRF8). Described as above. Format: cell-based. The note with it: for isoTOP-ABPP ratio Q9BRF8_C54: 200 μM, insitu.
cysteines in MDA-MB-231 and Ramos cells (Homo sapiens, UniProt Q9BRF8), sequence (Q9BRF8 whole entry): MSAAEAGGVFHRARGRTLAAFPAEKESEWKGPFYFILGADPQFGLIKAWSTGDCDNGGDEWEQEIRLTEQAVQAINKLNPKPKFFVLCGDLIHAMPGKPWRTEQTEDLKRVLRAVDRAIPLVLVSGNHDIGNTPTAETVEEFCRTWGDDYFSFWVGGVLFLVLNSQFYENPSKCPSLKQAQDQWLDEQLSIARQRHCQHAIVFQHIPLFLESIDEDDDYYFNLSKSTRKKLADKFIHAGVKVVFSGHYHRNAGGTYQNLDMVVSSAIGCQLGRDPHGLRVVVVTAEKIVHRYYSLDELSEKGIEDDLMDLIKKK
For assay [5], the target named is cysteines in MDA-MB-231 and Ramos cells (Homo sapiens, UniProt Q9Y6G9). The assay is described as above. Format: cell-based. The note with it: for isoTOP-ABPP ratio Q9Y6G9_C51: 200 μM, insitu, 231.
cysteines in MDA-MB-231 and Ramos cells (Homo sapiens, UniProt Q9Y6G9), sequence (Q9Y6G9 whole entry): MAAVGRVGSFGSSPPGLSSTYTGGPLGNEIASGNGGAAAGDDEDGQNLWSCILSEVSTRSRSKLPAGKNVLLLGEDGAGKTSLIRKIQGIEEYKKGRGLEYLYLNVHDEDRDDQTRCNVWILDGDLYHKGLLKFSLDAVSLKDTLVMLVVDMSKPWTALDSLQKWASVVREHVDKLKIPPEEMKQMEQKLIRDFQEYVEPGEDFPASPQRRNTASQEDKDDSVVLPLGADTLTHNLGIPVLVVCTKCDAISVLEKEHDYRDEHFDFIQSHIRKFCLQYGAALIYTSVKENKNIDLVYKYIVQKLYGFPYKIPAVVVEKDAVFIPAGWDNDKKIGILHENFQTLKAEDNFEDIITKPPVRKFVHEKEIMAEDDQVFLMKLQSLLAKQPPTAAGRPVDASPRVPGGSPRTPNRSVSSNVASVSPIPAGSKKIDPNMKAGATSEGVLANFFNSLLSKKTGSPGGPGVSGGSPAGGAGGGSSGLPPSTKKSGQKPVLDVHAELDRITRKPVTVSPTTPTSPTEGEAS
In assay [6] the target is T2, cysteines in MDA-MB-231 and Ramos cells (Homo sapiens, UniProt P29590).
T2 sequence (P29590 1-882): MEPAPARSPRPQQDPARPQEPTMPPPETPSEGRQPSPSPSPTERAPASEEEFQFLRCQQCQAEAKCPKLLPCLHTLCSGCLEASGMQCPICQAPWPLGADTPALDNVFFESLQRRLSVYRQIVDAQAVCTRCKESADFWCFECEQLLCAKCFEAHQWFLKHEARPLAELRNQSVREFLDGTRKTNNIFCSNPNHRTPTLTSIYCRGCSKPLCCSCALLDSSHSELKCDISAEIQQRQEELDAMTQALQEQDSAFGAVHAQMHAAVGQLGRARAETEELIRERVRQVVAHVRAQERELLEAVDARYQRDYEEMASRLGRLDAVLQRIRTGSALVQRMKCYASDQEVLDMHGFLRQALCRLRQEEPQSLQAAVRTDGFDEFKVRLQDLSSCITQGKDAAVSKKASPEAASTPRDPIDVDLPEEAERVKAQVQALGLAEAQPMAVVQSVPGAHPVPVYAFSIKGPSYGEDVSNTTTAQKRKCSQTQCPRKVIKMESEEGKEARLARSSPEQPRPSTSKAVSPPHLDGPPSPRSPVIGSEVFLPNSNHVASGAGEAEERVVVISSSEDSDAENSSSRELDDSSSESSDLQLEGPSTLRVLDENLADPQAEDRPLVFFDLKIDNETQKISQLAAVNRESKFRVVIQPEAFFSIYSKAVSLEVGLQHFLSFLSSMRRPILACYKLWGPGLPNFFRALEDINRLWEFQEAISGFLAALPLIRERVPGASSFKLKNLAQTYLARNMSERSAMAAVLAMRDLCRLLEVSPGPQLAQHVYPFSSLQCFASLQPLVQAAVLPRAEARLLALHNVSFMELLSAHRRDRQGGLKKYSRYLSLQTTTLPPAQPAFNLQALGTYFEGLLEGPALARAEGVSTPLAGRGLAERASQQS
The assay is described as above. Format: cell-based. The conditions noted are these: for isoTOP-ABPP ratio P29590_C389: 200 μM, insitu, 231.

Assay [7] has as its target cysteines in MDA-MB-231 and Ramos cells (Homo sapiens, UniProt P49189). The assay is described as above. Type of assay: cell-based. The note with it: 200 μM, insitu, 231.
Assay [8] deals with T3, cysteines in MDA-MB-231 and Ramos cells (Homo sapiens, UniProt Q07065).
T3 sequence (Q07065 1-602): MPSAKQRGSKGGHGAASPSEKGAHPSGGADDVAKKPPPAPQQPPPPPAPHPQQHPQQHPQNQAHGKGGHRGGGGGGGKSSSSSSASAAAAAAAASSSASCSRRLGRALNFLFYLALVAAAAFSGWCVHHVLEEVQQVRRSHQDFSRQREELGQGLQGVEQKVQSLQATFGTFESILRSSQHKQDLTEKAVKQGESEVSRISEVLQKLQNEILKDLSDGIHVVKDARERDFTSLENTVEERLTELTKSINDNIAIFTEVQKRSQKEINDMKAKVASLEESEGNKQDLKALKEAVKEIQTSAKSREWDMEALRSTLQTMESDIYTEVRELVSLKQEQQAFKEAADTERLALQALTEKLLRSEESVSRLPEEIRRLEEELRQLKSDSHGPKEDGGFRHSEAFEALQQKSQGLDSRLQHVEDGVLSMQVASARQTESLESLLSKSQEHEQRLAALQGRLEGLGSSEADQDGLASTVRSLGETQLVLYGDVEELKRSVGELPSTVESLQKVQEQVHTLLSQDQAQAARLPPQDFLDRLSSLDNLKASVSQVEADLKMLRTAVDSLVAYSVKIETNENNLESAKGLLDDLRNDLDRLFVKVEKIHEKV
Described as above. The conditions noted are these: 200 μM, insitu, 231. Format: cell-based.

The target of assay [9] is cysteines in MDA-MB-231 and Ramos cells (Homo sapiens, UniProt Q13630). The assay is described as above. Format: cell-based. The note with it: 200 μM, insitu, 231.
cysteines in MDA-MB-231 and Ramos cells (Homo sapiens, UniProt Q13630), sequence (Q13630 whole entry): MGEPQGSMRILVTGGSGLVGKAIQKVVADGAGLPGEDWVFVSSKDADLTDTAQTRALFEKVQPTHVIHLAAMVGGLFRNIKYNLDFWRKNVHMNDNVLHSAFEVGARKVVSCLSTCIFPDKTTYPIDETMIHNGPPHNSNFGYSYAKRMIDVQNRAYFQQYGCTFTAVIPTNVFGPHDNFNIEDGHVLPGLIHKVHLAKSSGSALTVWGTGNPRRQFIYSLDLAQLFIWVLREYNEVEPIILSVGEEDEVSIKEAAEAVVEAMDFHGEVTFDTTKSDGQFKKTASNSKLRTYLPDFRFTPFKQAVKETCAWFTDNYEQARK
Assay [10] addresses T4, cysteines in MDA-MB-231 and Ramos cells (Homo sapiens, UniProt Q9NQ88).
T4 sequence (Q9NQ88 1-270): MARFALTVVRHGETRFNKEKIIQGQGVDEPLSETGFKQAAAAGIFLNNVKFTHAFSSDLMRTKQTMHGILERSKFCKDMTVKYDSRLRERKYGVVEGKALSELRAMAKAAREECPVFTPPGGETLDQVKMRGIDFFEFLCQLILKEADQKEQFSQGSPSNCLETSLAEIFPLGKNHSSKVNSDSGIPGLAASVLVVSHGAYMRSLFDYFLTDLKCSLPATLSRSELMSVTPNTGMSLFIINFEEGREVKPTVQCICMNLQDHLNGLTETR
The assay is described as above. Type of assay: cell-based. The note with it: 200 μM, insitu.

In assay [11] the target is T5, cysteines in MDA-MB-231 and Ramos cells (Homo sapiens, UniProt Q9Y5Y2).
T5 sequence (Q9Y5Y2 1-271): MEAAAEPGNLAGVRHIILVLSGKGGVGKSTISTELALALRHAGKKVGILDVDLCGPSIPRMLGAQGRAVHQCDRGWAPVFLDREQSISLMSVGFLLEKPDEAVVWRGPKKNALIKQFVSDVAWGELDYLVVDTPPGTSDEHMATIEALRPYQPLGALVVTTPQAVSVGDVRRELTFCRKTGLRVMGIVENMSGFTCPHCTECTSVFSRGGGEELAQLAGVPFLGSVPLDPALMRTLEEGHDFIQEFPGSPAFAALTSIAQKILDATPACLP
The assay is described as above. Format: cell-based. The note with it: 200 μM, insitu, ramos.

The next assay deals with O00541_C272 (Homo sapiens, UniProt O00541). Briefly: Competitive isoTOP-ABPP, cell lysates. Format: binding.
O00541_C272, sequence (O00541 whole entry, looked up): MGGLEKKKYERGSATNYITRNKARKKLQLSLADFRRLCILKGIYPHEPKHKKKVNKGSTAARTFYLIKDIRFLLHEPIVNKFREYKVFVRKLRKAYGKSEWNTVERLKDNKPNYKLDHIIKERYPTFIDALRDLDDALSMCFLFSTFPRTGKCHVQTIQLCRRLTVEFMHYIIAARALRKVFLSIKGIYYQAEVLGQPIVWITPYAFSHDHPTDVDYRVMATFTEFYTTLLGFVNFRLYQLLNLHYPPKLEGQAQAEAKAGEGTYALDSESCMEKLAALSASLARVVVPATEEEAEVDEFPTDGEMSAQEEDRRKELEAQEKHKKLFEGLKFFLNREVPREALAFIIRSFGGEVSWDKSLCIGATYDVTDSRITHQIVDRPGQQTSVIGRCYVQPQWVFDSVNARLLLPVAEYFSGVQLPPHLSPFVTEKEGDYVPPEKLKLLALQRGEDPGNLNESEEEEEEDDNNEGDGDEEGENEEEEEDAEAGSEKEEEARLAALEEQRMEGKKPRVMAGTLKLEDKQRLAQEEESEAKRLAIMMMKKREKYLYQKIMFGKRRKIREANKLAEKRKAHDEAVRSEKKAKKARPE

SMILES strings stand for the structures.

cysteines in MDA-MB-231 and Ramos cells (Homo sapiens, UniProt O14980), sequence (O14980 whole entry, the tested form may be a part): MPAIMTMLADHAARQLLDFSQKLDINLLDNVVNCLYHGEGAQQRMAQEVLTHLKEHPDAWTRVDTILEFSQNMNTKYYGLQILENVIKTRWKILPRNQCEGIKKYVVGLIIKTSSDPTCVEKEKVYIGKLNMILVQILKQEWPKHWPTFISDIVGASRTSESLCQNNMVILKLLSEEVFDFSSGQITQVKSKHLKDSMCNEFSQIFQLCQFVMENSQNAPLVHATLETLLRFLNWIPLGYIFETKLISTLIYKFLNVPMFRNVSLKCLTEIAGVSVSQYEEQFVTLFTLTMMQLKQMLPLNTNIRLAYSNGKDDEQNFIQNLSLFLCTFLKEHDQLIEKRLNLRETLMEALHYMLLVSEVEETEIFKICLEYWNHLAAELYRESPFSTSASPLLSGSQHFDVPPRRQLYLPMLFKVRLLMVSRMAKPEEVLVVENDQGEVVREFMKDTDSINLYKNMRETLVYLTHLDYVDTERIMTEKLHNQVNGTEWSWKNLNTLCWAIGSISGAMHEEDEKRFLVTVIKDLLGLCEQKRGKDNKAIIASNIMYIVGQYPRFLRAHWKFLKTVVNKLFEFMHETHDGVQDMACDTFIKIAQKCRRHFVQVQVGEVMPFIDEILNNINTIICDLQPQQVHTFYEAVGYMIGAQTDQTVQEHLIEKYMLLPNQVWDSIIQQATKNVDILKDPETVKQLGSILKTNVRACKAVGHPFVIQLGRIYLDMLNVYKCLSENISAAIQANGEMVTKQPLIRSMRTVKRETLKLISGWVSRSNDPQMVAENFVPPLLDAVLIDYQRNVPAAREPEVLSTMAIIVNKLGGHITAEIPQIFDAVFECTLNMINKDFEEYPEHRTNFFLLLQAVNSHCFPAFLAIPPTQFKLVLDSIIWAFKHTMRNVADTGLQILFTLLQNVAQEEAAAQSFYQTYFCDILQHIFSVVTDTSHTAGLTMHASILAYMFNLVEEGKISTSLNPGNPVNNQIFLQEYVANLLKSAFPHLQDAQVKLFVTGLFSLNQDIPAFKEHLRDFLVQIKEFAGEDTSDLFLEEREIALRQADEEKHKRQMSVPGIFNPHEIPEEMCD
cysteines in MDA-MB-231 and Ramos cells (Homo sapiens, UniProt P49189), sequence (P49189 whole entry): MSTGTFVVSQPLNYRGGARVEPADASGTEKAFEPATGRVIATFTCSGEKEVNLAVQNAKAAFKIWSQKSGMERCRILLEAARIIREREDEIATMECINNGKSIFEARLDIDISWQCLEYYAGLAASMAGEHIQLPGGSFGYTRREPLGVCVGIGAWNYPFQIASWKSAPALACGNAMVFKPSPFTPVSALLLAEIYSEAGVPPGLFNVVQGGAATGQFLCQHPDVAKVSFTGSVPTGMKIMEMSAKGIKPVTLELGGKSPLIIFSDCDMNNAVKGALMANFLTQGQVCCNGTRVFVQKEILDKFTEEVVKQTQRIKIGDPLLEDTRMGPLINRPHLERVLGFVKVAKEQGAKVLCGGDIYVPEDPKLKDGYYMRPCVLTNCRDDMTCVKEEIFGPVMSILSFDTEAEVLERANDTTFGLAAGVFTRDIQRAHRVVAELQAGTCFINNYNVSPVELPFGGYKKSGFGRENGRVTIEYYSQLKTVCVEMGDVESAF

As to `COc1ccc(C2CC(c3cccs3)=NN2C(=O)CCl)cc1` (stereo not drawn) [compound 4], in assay [1] (100 μM in situ 231), the “isoTOP-ABPP reactivity O14980_0528 XPO1” value is 1.9. Moreover, the “isoTOP-ABPP reactivity P35754_C23 GLRX” value in [2] (100 μM in situ 231) turned out to be 20.0. The “isoTOP-ABPP reactivity Q00765_018 REEP5” value in assay [3] (100 μM in situ 231) is recorded as 20.0. Moreover, the “isoTOP-ABPP reactivity Q9BRF8_C54 CPPED1” value in [4] (100 μM in situ 231) stood at 20.0. Further, the “isoTOP-ABPP reactivity Q9Y6G9_C51 DYNC1LI1” value in assay [5] (100 μM in situ 231) was 3.5.
As for `O=C(CCl)Nc1cccc2ncccc12` [compound 51], the “isoTOP-ABPP ratio O14980_C528” value in assay [1] (231) came to 1.1. In addition, the “isoTOP-ABPP ratio P29590_C389” value in assay [6] is 0.9.
With `CC1CCc2ccccc2N1C(=O)CCl` (stereo not drawn) [compound 45], the “isoTOP-ABPP ratio P29590_C389” value in assay [6] amounted to 3.4. Moreover, the “isoTOP-ABPP ratio P35754_C23” value in assay [2] came out at 16.3. In addition, the “isoTOP-ABPP ratio P49189_C288” value in assay [7] stood at 20.0. In assay [3] (231), the “isoTOP-ABPP ratio Q00765_C18” value is given as 20.0. Moreover, the “isoTOP-ABPP ratio Q07065_C100” value in assay [8] was determined as 20.0. In assay [9], the “isoTOP-ABPP ratio Q13630_C116” value worked out at 20.0. The “isoTOP-ABPP ratio Q9BRF8_C54” value in [4] (231) was 20.0. Besides, in [10] (231), the “isoTOP-ABPP ratio Q9NQ88_C114” value came to 4.6 and the “isoTOP-ABPP ratio Q9NQ88_C161” value was found to be 20.0.
Turning to `O=C(CCl)NC(=O)NC12CC3CC(CC(C3)C1)C2` [compound 12], the “isoTOP-ABPP ratio P35754_C23” value in assay [2] is on record as 20.0. In addition, the “isoTOP-ABPP ratio P49189_C288” value in assay [7] was 1.8. In assay [3] (231), the “isoTOP-ABPP ratio Q00765_C18” value is given as 20.0. In addition, the “isoTOP-ABPP ratio, cysteine Q07065_C100” value in assay [8] came to 20.0. Besides, in assay [4] (231), the “isoTOP-ABPP ratio Q9BRF8_C54” value was 1.2. Besides, the “isoTOP-ABPP ratio Q9Y6G9_C51” value in [5] came out at 6.5.
Take `O=C(CCl)N1CCN(CC(=O)N2CCOCC2)CC1` [compound 29]: the “isoTOP-ABPP ratio O14980_C528” value in [1] (ramos) turned out to be 1.1. For the same compound, the “isoTOP-ABPP ratio Q00765_C18” value in assay [3] (ramos) turned out to be 1.4. The “isoTOP-ABPP ratio Q9BRF8_C54” value in [4] (ramos) stood at 1.5. Besides, in [10] (ramos), the “isoTOP-ABPP ratio Q9NQ88_C114” value turned out to be 0.9 and the “isoTOP-ABPP ratio Q9NQ88_C161” value amounted to 1.3. Moreover, the “isoTOP-ABPP ratio Q9Y5Y2_C72” value in assay [11] stood at 1.1. Also, the “isoTOP-ABPP ratio (reactivity profile), O00541_C272” value (“isoTOP-ABPP ratio … O00541_C272” for short) at O00541_C272 (500 μm in-vitro ramos_231) was 0.9.
Take `O=C(CCl)N1CCOCC1` [compound 22]: the “isoTOP-ABPP ratio … O00541_C272” value at O00541_C272 (500 μm in-vitro ramos_231) worked out at 1.6.
For `CC(C)CCOCCNC(=O)CCl` [compound 27], in assay [6], the “isoTOP-ABPP ratio P29590_C389” value is recorded as 0.5. In addition, the “reactivity profile of liganded cysteine P29590_C213 with fragment electrophile (isoTOP-ABPP ratio)” value in [6] (cysteine P29590_C213, fragment 200 μM, in situ, 231 (MDA-MB-231) cells) was 0.8. Besides, in assay [2], the “isoTOP-ABPP ratio P35754_C23” value was 0.7. The “isoTOP-ABPP ratio Q00765_C18” value in [3] (231) was 1.1. For the same compound, in [10] (231), the “isoTOP-ABPP ratio Q9NQ88_C114” value amounted to 0.4 and the “isoTOP-ABPP ratio Q9NQ88_C161” value came to 0.6. Also, in assay [5], the “isoTOP-ABPP ratio Q9Y6G9_C51” value came to 0.6. Besides, the “isoTOP-ABPP ratio … O00541_C272” value at O00541_C272 (500 μm in-vitro ramos_231) came to 1.1.
Regarding `N#C/C(=C\c1cc(C(F)(F)F)cc(C(F)(F)F)c1)C(N)=O` [compound 23], the “isoTOP-ABPP ratio … O00541_C272” value at O00541_C272 (500 μm in-vitro ramos) was found to be 2.0.
